This is an account of results in PMC5573328, “Cyclooxygenase-2 contributes to oxidopamine-mediated neuronal inflammation and injury via the prostaglandin E2 receptor EP2 subtype” (Scientific Reports, 2017).

The target of the assay is T1, PGE2 receptor EP2 subtype (Mus musculus, UniProt Q62053).
T1 construct: gene Ptger2; endogenous receptor in Neuro-2a cells
The assay can be described thus: TR-FRET cAMP assay in Neuro-2a cells (agonist dose-response). The class given is cell-based.

One may read the EC50 as the concentration giving half of the maximal effect. The low end stands for an effect from little substance, the high end for a need for much substance.

The structures appear in SMILES notation.

T1 sequence (Q62053 whole entry): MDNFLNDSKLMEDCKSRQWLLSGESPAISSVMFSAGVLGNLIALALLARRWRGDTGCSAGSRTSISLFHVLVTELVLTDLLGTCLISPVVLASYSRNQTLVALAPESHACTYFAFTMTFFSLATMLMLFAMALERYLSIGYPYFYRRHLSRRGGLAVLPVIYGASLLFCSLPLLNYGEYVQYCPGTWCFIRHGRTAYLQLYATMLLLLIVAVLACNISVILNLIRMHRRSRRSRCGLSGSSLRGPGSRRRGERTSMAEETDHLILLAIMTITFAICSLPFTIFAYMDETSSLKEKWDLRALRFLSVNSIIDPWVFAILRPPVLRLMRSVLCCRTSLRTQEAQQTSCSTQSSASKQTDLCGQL

`CCCC1([C@H](O)C/C=C/[C@H]2[C@H](O)CC(=O)[C@@H]2CCCCCCC(=O)OC)CCC1` [butaprost] gave an EC50 of 80 nM.
